“Also recorded” adds a separate entry of the source.
Each compound was assayed against T1, human SK4 (Homo sapiens, UniProt O15554) (assay: Whole-cell patch-clamp of WT SK4 K+ currents in transfected CHO cells). Conditions: 20 μM, whole-cell.
T1 construct: expressed in transfected cells; host or cells: CHO cells
Type: cell-based
Procedure: Constructs: For CHO cell transfection, the following were cloned: human SK1, rat SK2, human SK3, and rat calmodulin into the pcDNA3 vector, human SK4 into pEGFP-C1 vector, and PIP4,5-kinase into an IRES-dsRed plasmid. The mutations were introduced using the PCR-based QuikChange™ site-directed mutagenesis (Stratagene®) and were verified by full sequencing of the entire plasmid vector.
Cell Culture and Transfection: Chinese hamster ovary (CHO) cells were grown in Dulbecco's modified Eagle's medium supplemented with 2 millimolar (mM) glutamine, 10% fetal calf serum, and antibiotics. In brief, 40,000 cells seeded on poly-L-lysine-coated glass coverslips (13 millimeter (mm) in diameter) in a 24-multiwell plate were transfected with 0.5 microgram (μg) pEGFP-SK4/0.5 μg mutant SK4, 1.2 μg dsRed-PIP4,5-kinase or with 1 μg SK1/SK2/SK3 together with pIRES-CD8 (0.3 μg) as a marker for transfection. Transfection was performed using TransIT-LT1 Transfection Reagent (Mirus Bio) according to the manufacturer's protocol. For electrophysiology, transfected cells were visualized approximately 40 hours after transfection with a Zeiss Axiovert 35 inverted florescence microscope.
Whole-cell patch-clamp recording: Voltage-clamp recordings were performed using the whole-cell configuration of the patch-clamp technique. Signals were amplified using an […] patch-clamp amplifier (Molecular Devices), sampled at 5 kHz and filtered at 2.4 kHz via a four pole Bessel low pass filter. Data were acquired using pClamp™ 10.5 software in conjunction with an Axon™ DigiData® 1440A interface (Molecular Devices). The patch pipettes were pulled from borosilicate glass (Harvard Apparatus) with a resistance of 3-5 megaohms (MΩ). The intracellular pipette solution contained 130 mM KCl, 5 mM EGTA, 10 mM HEPES, pH 7.3 (adjusted with KOH), and CaCl2 calculated for a final concentration of 1 μM free-Ca^2+, by MAXCHELATOR (WEBMAXC STANDARD) software, with sucrose added to adjust osmolarity to 290 mosM. The external solution (310 mosM) contained 140 mM NaCl, 4 mM KCl, 1.8 mM CaCl2, 1.2 mM MgCl2, 11 mM glucose, and 5.5 mM HEPES adjusted with NaOH to pH 7.3. CHO cells were held at −90 millivolt (mV) and SK4 K^+ currents were activated using a voltage ramp protocol from −100 mV to +60 mV for 150 milliseconds. Electrophysiological data analysis was performed using the Clampfit program (pClamp™ 10.5; Molecular Devices).
Some of the compounds were tested by comparing trace of WT SK4 channel currents in the absence and presence of 20 μM of the tested compound.

inhibition of WT SK4 currents | SMILES
about 25% | CCCCCCCn1c(=O)[nH]c2ccccc21 [BA6B, 1-heptyl-1,3-dihydro-2H-benzo[d]imidazol-2-one]

Same assay, conditions: CHO, 20 μM, whole-cell

inhibition at 20 µM [%] | SMILES
25 | CCCCCCCn1c(=O)[nH]c2ccccc21 [BA6B, 1-heptyl-1,3-dihydro-2H-benzo[d]imidazol-2-one]

Same assay, conditions: WT SK4 currents in absence and presence of 20 μM compound

SK4 K+ channel modulating activity | SMILES
Inactive | CCCCCCCn1c(=O)n(CCCCCCC)c2cc(Cl)c(Cl)cc21 [BA46, 5,6-dichloro-1,3-diheptyl-1,3-dihydro-2H-benzo[d]imidazol-2-one]
inhibition; also recorded: Inhibitor | CCCCCCn1c(=O)[nH]c2ccccc21 [BA5B, 1-hexyl-1,3-dihydro-2H-benzo[d]imidazol-2-one]
Inactive | CCCCCCn1c(=O)n(CCCCCC)c2cc(C)ccc21 [BA26, 1,3-dihexyl-5-methyl-1,3-dihydro-2H-benzo[d]imidazol-2-one]
Inactive | CCCn1c(=O)n(CCC)c2ccccc21 [BA3A, 1,3-dipropyl-1,3-dihydro-2H-benzo[d]imidazol-2-one]
inhibition; also recorded: Inhibitor | CCCCCn1c(=O)[nH]c2ccccc21 [BA4B, 1-pentyl-1,3-dihydro-2H-benzo[d]imidazol-2-one]
Inactive | CCCn1c(=O)n(CCC)c2cc(C)ccc21 [BA2OC3c, 5-methyl-1,3-dipropyl-1,3-dihydro-2H-benzo[d]imidazol-2-one]
Inactive | CCCCCCCn1c(=O)n(CCCCCCC)c2cc(C)c(C)cc21 [BA56, 1,3-diheptyl-5,6-dimethyl-1,3-dihydro-2H-benzo[d]imidazol-2-one]
Inactive | Cc1ccc2c(c1)n(C)c(=O)n2C [BA2OC1c, 1,3,5-trimethyl-1,3-dihydro-2H-benzo[d]imidazol-2-one]
Inactive | CCCCCCn1c(=O)n(CCCCCC)c2ccccc21 [BA5A, 1,3-dihexyl-1,3-dihydro-2H-benzo[d]imidazol-2-one]
Inactive | CCCn1c(=O)[nH]c2ccccc21 [BA3B, 1-propyl-1,3-dihydro-2H-benzo[d]imidazol-2-one]
Inactive | CCCCCCCCn1c(=O)n(CCCCCCCC)c2ccccc21 [BA7A, 1,3-dioctyl-1,3-dihydro-2H-benzo[d]imidazol-2-one]
Inactive | CCCCCCCCCCn1c(=O)n(CCCCCCCCCC)c2ccccc21 [BA8A, 1,3-didecyl-1,3-dihydro-2H-benzo[d]imidazol-2-one]
Inactive | CCCCCCn1c(=O)n(CCCCCC)c2cc(F)ccc21 [BA66, 5-fluoro-1,3-dihexyl-1,3-dihydro-2H-benzo[d]imidazol-2-one]
Inactive | CCCCCCn1c(=O)n(CCCCCC)c2cc(C)c(C)cc21 [BA54, 1,3-dihexyl-5,6-dimethyl-1,3-dihydro-2H-benzo[d]imidazol-2-one]
Inactive | CCCCCCCCCCn1c(=O)[nH]c2ccccc21 [BA8B, 1-decyl-1,3-dihydro-2H-benzo[d]imidazol-2-one]
Inactive | Cn1c(=O)n(C)c2ccccc21 [BA2A, 1,3-dimethyl-1,3-dihydro-2H-benzo[d]imidazol-2-one]
Inactive | CCCCCCCCCCCCn1c(=O)n(CCCCCCCCCCCC)c2ccccc21 [BA9A, 1,3-didodecyl-1,3-dihydro-2H-benzo[d]imidazol-2-one]
Inactive | CCCCCCCCn1c(=O)[nH]c2ccccc21 [BA7B, 1-octyl-1,3-dihydro-2H-benzo[d]imidazol-2-one]
Inactive | CCCCCCCn1c(=O)n(CCCCCCC)c2cc(C)ccc21 [BA29, 1,3-diheptyl-5-methyl-1,3-dihydro-2H-benzo[d]imidazol-2-one]
Inactive | CCCCCn1c(=O)n(CCCCC)c2ccccc21 [BA4A, 1,3-dipentyl-1,3-dihydro-2H-benzo[d]imidazol-2-one]
Inactive | CCCCCCCn1c(=O)n(CCCCCCC)c2cc(F)ccc21 [BA69, 5-fluoro-1,3-diheptyl-1,3-dihydro-2H-benzo[d]imidazol-2-one]
Inactive | CCCCCCCn1c(=O)n(CCCCCCC)c2ccccc21 [BA6A, 1,3-diheptyl-1,3-dihydro-2H-benzo[d]imidazol-2-one]
Inactive | CCCCCCn1c(=O)n(CCCCCC)c2cc(Cl)c(Cl)cc21 [BA44, 5,6-dichloro-1,3-dihexyl-1,3-dihydro-2H-benzo[d]imidazol-2-one]
Inactive | Cc1ccc2[nH]c(=O)[nH]c2c1 [BA20, 5-methyl-1,3-dihydro-2H-benzo[d]imidazol-2-one]
Inactive | Cc1cccc2[nH]c(=O)[nH]c12 [BA30, 4-methyl-1,3-dihydro-2H-benzo[d]imidazol-2-one]

SMILES | SK4 K+ channel modulating activity
Cc1cc2[nH]c(=O)[nH]c2cc1C [BA50, 5,6-dimethyl-1,3-dihydro-2H-benzo[d]imidazol-2-one] | Inactive
CCCCCCCn1c(=O)[nH]c2ccccc21 [BA6B, 1-heptyl-1,3-dihydro-2H-benzo[d]imidazol-2-one] | inhibited; also recorded: inhibition; also recorded: Inhibitor
CCCCCn1c(=O)n(CCCCC)c2cc(Cl)c(Cl)cc21 [BA42, 5,6-dichloro-1,3-dipentyl-1,3-dihydro-2H-benzo[d]imidazol-2-one] | Inactive
CCCCCn1c(=O)n(CCCCC)c2cc(F)ccc21 [BA63, 5-fluoro-1,3-dipentyl-1,3-dihydro-2H-benzo[d]imidazol-2-one] | Inactive
CCCCCn1c(=O)n(CCCCC)c2cc(C)ccc21 [BA23, 5-methyl-1,3-dipentyl-1,3-dihydro-2H-benzo[d]imidazol-2-one] | Inactive

Same assay, conditions: dose-dependent inhibition of WT SK4 channels; read-out: SK4 K+ channel modulating activity (IC50)

IC50 [µM] | SMILES
50 | CCCCCCCn1c(=O)[nH]c2ccccc21 [BA6B, 1-heptyl-1,3-dihydro-2H-benzo[d]imidazol-2-one]

Source: patent publication US20240366571A1, “MODULATORS OF SK4 POTASSIUM CHANNEL AND USES THEREOF” (Ramot at Tel-Aviv University Ltd., priority 2022, published 2024)
